Laboratory results taken from patent US20070249634A1, “Triazolopyrimidine Compounds and Use Thereof for Controlling Harmful Fungi” (priority 2004, published 2007).

melting point: 199 to 204 °C
SMILES: CC1CCN(c2c(-c3cc([N+](=O)[O-])ccc3Cl)c(Cl)nc3ncnn23)CC1 [compound 56, 5-chloro-6-(2-chloro-5-nitrophenyl)-7-(4-methylpiperidin-1-yl)-[1,2,4]-triazolo[1,5-a]pyrimidine]
